Laboratory results reported in article PMC11304990, “Identification of mitochondrial ATP synthase as the cellular target of Ru-polypyridyl-β-carboline complexes by affinity-based protein profiling” (National Science Review, 2024).

Assays:
Ru5-treated cells = experiment: Effect of cell death inhibitors on antiproliferative activity; assay type: cell-based; settings: 24 h
Method: Figure 4. Ru5 induces mitophagy and ferroptosis and inhibits EMT in vitro. (A) TEM images of A549 cells treated with vehicle (1% DMSO) or Ru5 (10 μM, 12 h). Red rectangles represent the region enlarged. Scale bar: 5 μm and 500 nm (enlarged). (B) The morphological examination of mitochondria in A549 cells treated with Ru5 (10 μM) for the indicated time intervals. MTG: λex = 514 nm; λem = 540 ± 20 nm. LTDR: λex = 633 nm; λem = 700 ± 20 nm. Scale bar: 20 μm. (C) Western blotting analysis showing the impact of Ru5 (24 h) on the expression of proteins related to mitochondrial dysfunction and ferroptosis. (D and E) The impact of different inhibitors on antiproliferative activity of Ru5 (24 h). (F) RT-qPCR analysis of EMT-related genes in A549 cells after Ru5 (10 μM, 12 h) treatment. (G) The impact of Ru5 (5 μM) on the migration of A549 cells was measured by a wound healing assay. Scale bar: 100 μm. (H) Quantitative analysis of the impact of Ru5 on wound healing. (I) Selective images of the impact of Ru5 (5 μM, 48 h) on the migration of A549 cells detected by transwell assay. Scale bar: 100 μm. Data are presented as means ± SD from three independent experiments. *P ≤ 0.05, **P ≤ 0.01, ***P ≤ 0.001, by Student's t-test.
We then used different specific inhibitors to further confirm the modes of cell death induced by Ru5. These inhibitors act on autophagy (3-methyladenine, 3-MA, Fig. 4D), ferroptosis (liproxstatin-1, Lip-1, Fig. 4E), necroptosis (necrostatin-1, Nec-1, Fig. S47A) and apoptosis (Z-VAD-FMK, Fig. S47B). The effect of 3-MA on the antiproliferative activity of Ru5 is concentration-dependent, with lower and higher concentrations enhancing and inhibiting the antiproliferative activity of Ru5, respectively. Thus, Ru5 induces cytoprotective autophagy at lower concentrations, while autophagic cell death is induced at higher concentrations. As expected, Lip-1 can relieve the antiproliferative activity of Ru5. However, Nec-1 and Z-VAD-FMK show no effect on the cell viability of Ru5-treated cells.

A549 xenograft = A549 xenograft nude mice model; assay type: in vivo
Method: Lastly, the in vivo anticancer activity of Ru5 was assessed via a A549 xenograft nude mice model (Fig. 5A). Mice were treated with PBS, cisplatin (5 mg kg^−1) or Ru5 (5 mg kg^−1) for 14 days, during which body weights and tumor volumes were monitored.
Figure 5. […] (A) Schematic illustration of in vivo therapeutic protocol. (B) Graphs of tumor volumes of nude mice after treatment with Ru5 (5 mg kg^−1), cisplatin (5 mg kg^−1) and PBS. The intratumoral injections were performed every 7 days. Data are presented as means ± SD, n = 5. (C) Immunohistochemical analysis of hematoxylin-eosin (H&E) staining in tumor sections from mice with different treatments. Scale bar: 50 μm. (D) Tumors separated from nude mice. (E) The average body weight of the mice in each group during the treatment process. Data are presented as means ± SD, n = 5. (F) H&E staining of the main organs from mice with different treatments. Scale bar: 100 μm.

[1] = system: cervical carcinoma (HeLa); experiment: MTT antiproliferative assay, HeLa; assay type: cell-based, human; settings: 72 h
Description: (§1) Ru3–Ru9 also show a certain selectivity for cancer cells over normal cells, and Ru2, Ru3, Ru5 and Ru9 show higher selectivity index (SI) values than the other complexes.
(§2) PA-BPP was then used to confirm the molecular targets of Ru5 by modifying it with a ‘minimalist’ biorthogonal handle-containing photo-cross-linker. Through our structure–activity relationship analysis and comparison with other ruthenium complexes utilizing phen as the auxiliary ligands with similar coordination structures (using cisplatin as a control), we propose that the β-carboline ligands play an important role in antiproliferative activity. To maintain the binding characteristics of the β-carboline moiety with the targeted biomolecules, we linked the photo-cross-linker to one of the auxiliary ligands of Ru5.

[2] = system: lung adenocarcinoma (A549); experiment: MTT antiproliferative assay, A549; assay type: cell-based, human; settings: 72 h
Description: as §1, §2

IC50 [1]: 3100 ± 700 nM
IC50 [2]: 2100 ± 800 nM
SMILES: F[P-](F)(F)(F)(F)F.F[P-](F)(F)(F)(F)F.[Ru+2].c1ccc2c(c1)[nH]c1c(-c3ncc[nH]3)nccc12.c1cnc2c(c1)ccc1cccnc12.c1cnc2c(c1)ccc1cccnc12 [Ru5]
Effect of 3-MA (autophagy inhibitor) on antiproliferative activity (Ru5-treated cells): concentration-dependent
Effect of Lip-1 (ferroptosis inhibitor) on antiproliferative activity (Ru5-treated cells): relieve
Effect of Nec-1 (necroptosis inhibitor) on cell viability (Ru5-treated cells): no effect
Effect of Z-VAD-FMK (apoptosis inhibitor) on cell viability (Ru5-treated cells): no effect
Body weight loss (A549 xenograft; 5 mg kg−1, 14 days): no significant body weight loss
Organ damage (H&E staining of the main organs) (A549 xenograft; 5 mg kg−1, 14 days): no significant
Tumor inhibition compared with cisplatin and PBS (A549 xenograft; 5 mg kg−1, 14 days): better tumor inhibition
Tumor growth inhibitory rate (A549 xenograft; 5 mg kg−1, intratumoral injection every 7 days, 14 days, compared with the control groups): ~89.6%
